Here are results for 22 molecules from patent publication EP2768830B1, “APOPTOSIS-INDUCING AGENTS FOR THE TREATMENT OF CANCER AND IMMUNE AND AUTOIMMUNE DISEASES” (AbbVie Inc., priority 2011, dated 2013).

The Ki is a measure of affinity in units of concentration, obtained from inhibition or displacement.

For one assay, the target named is T1, GST-Bcl-2 (Homo sapiens, UniProt P10415).
T1 construct: made in house
Particulars: F-Bak probe, read-out: Ki, competition with F-Bak for the Bcl-2 binding site using the TR-FRET binding assay. (In general: Time-resolved FRET reads energy transfer from a long-lived donor to a nearby acceptor.)

Assay [1] deals with mouse FL5.12 cells transfected with Bcl-XL. As to the kind of experiment: FL5.12 cellular assay (cell viability, CellTiter-Glo).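 Note: each EC50 determination derived from duplicate measurements.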 Format: cell-based. The note with it: FL5.12 cells transfected with Bcl-XL, IL-3-depleted, 3% FBS assay media, 24 hours, CellTiter-Glo, read-out: FL5.12 Bcl-xL, - IL3, EC 50.
Description: For assaying the compound activity, the cells were exchanged into an IL-3-depleted deprivation media, which was identical to the growth media except for the absence of FBS and WEHI-3B conditional media, for 2 days. Then the cells were exchanged to 3% FBS assay media (RPMI with 2 mM glutamine, 1% 100 mM sodium pyruvate, 2% 1 M HEPES, 4 µL/L of β-mercaptoethanol, 1% penicillin-streptomycin, 3% FBS). Compounds in series dilutions were added, and the cells were cultured for 24 hours. Compounds in series dilutions were added, and the cells were cultured for 24 hours. Cell viability was assayed using the CellTiter-Glo assay (Promega Corp., Madison, WI) according to the manufacturer instructions. Individual determinations were the result of duplicate values.
Another assay concerns the target GST-Bcl-xL (Homo sapiens, UniProt Q07817). The note with it: read-out: TR-FRET binding Bcl-xL Ki.

Where two headings read alike, the source gives them in different places.

Chain of GST-Bcl-xL (Q07817 whole entry): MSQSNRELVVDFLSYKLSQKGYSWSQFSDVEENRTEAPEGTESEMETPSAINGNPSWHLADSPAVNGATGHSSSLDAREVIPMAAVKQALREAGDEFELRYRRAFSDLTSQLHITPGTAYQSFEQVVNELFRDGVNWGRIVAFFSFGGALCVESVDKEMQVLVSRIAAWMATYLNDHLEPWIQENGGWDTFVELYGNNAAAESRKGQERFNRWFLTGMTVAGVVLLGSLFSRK
T1 sequence (P10415 whole entry): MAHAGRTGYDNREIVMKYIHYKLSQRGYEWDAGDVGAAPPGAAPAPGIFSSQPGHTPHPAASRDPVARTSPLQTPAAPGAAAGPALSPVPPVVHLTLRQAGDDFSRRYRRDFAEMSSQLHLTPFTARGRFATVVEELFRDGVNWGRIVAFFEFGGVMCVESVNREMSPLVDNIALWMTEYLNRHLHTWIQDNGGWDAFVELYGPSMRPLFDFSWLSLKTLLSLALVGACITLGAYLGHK

Regarding `Cc1c(-c2ccc(N3CCc4cccc(C(=O)Nc5nc6ccccc6s5)c4C3)nc2C(=O)O)cnn1Cc1ccccc1` [Example 20, 6-[8-(1,3-benzothiazol-2-ylcarbamoyl)-3,4-dihydroisoquinolin-2(1H)-yl]-3-(1-benzyl-5-methyl-1H-pyrazol-4-yl)pyridine-2-carboxylic acid], the Ki on GST-Bcl-2 was 70 nM; on GST-Bcl-xL, 2 nM. Further, in assay [1] (Mus musculus), the EC50 came to 13 nM.

With `COc1ccc2nc(NC(=O)c3cccc4c3CN(c3ccc(-c5cnn(Cc6ccccc6)c5)c(C(=O)O)n3)CC4)sc2c1` [Example 11, 3-(1-benzyl-1H-pyrazol-4-yl)-6-{8-[(6-methoxy-1,3-benzothiazol-2-yl)carbamoyl]-3,4-dihydroisoquinolin-2(1H)-yl}pyridine-2-carboxylic acid], the EC50 in assay [1] was above 1000 nM. Also, the Ki on GST-Bcl-xL is 180 nM.

On to `O=C(Nc1nc2ccccc2s1)c1cccc2c1CN(c1ccc(-c3cnn(Cc4cc(F)cc(F)c4)c3)c(C(=O)O)n1)CC2` [Example 53, 6-[8-(1,3-benzothiazol-2-ylcarbamoyl)-3,4-dihydroisoquinolin-2(1H)-yl]-3-[1-(3,5-difluorobenzyl)-1H-pyrazol-4-yl]pyridine-2-carboxylic acid], for which the EC50 in assay [1] came to 387 nM. In addition, the inhibitory constant (Ki) on GST-Bcl-xL turned out to be 14 nM.

With `Cc1c(-c2ccc(N3CCc4cccc(C(=O)Nc5nc6ccccc6s5)c4C3)nc2C(=O)O)ccnc1N1CCCCC1` [Example 183, 6-[8-(1,3-benzothiazol-2-ylcarbamoyl)-3,4-dihydroisoquinolin-2(1H)-yl]-3'-methyl-2'-(piperidin-1-yl)-3,4'-bipyridine-2-carboxylic acid], the EC50 in assay [1] (Mus musculus) stood at 507 nM. In addition, the Ki on GST-Bcl-xL came out at 0.7 nM.

Consider `Cc1noc(-c2cccc(Cn3cc(-c4ccc(N5CCc6cccc(C(=O)Nc7nc8ccccc8s7)c6C5)nc4C(=O)O)cn3)c2)n1` [Example 29, 6-[8-(1,3-benzothiazol-2-ylcarbamoyl)-3,4-dihydroisoquinolin-2(1H)-yl]-3-{1-[3-(3-methyl-1,2,4-oxadiazol-5-yl)benzyl]-1H-pyrazol-4-yl}pyridine-2-carboxylic acid], for which the EC50 in assay [1] (Mus musculus) was above 1000 nM. Besides, the Ki on GST-Bcl-xL was 18 nM.

For the molecule `Cc1ccc(-c2ccc(N3CCc4cccc(C(=O)Nc5nc6ccccc6s5)c4C3)nc2C(=O)O)cc1Oc1ccccc1` [Example 108, 6-[8-(1,3-benzothiazol-2-ylcarbamoyl)-3,4-dihydroisoquinolin-2(1H)-yl]-3-(4-methyl-3-phenoxyphenyl)pyridine-2-carboxylic acid], the EC50 in assay [1] (Mus musculus) is above 1000 nM. Besides, on GST-Bcl-xL, the Ki was determined as 9 nM.

Consider `Cc1c(-c2ccc(N3CCc4cccc(C(=O)Nc5nc6ccccc6s5)c4C3)nc2C(=O)O)cnn1CC1(OCCS(C)(=O)=O)CCCC(C)(C)C1` (stereo not drawn) [Example 178, 6-[8-(1,3-benzothiazol-2-ylcarbamoyl)-3,4-dihydroisoquinolin-2(1H)-yl]-3-[1-({3,3-dimethyl-1-[2-(methylsulfonyl)ethoxy]cyclohexyl}methyl)-5-methyl-1H-pyrazol-4-yl]pyridine-2-carboxylic acid], for which the EC50 in assay [1] (Mus musculus) came to 0.2 nM. For the same molecule, the inhibitory constant (Ki) at GST-Bcl-xL is below 0.1 nM.

`O=Cc1cccc(Cn2cc(-c3ccc(N4CCc5cccc(C(=O)Nc6nc7ccccc7s6)c5C4)nc3C(=O)O)cn2)c1` [Example 64, 6-[8-(1,3-benzothiazol-2-ylcarbamoyl)-3,4-dihydroisoquinolin-2(1H)-yl]-3-[1-(3-formylbenzyl)-1H-pyrazol-4-yl]pyridine-2-carboxylic acid]: the EC50 in assay [1] (Mus musculus) was above 1000 nM. Besides, at GST-Bcl-xL, the Ki came out at 61 nM.

`O=C(Nc1nc2ccccc2s1)c1cccc2c1CN(c1ccc(-c3cnn(Cc4cccc(O)c4)c3)c(C(=O)O)n1)CC2` [Example 17, 6-[8-(1,3-benzothiazol-2-ylcarbamoyl)-3,4-dihydroisoquinolin-2(1H)-yl]-3-[1-(3-hydroxybenzyl)-1H-pyrazol-4-yl]pyridine-2-carboxylic acid]: the EC50 in assay [1] is above 1000 nM. For the same molecule, the inhibitory constant (Ki) at GST-Bcl-xL amounted to 31 nM.

With `O=C(Nc1nc2ccccc2s1)c1cccc2c1CN(c1ccc(-c3ccnc(OC4CCCCC4)c3)c(C(=O)O)n1)CC2` [Example 139, 6-[8-(1,3-benzothiazol-2-ylcarbamoyl)-3,4-dihydroisoquinolin-2(1H)-yl]-2'-(cyclohexyloxy)-3,4'-bipyridine-2-carboxylic acid], in assay [1] (Mus musculus), the EC50 was above 1000 nM. Further, the inhibition constant Ki at GST-Bcl-xL was determined as 0.4 nM.

In the case of `O=C(Nc1nc2ccccc2s1)c1cccc2c1CN(c1ccc(-c3cnn(Cc4ccccc4S(=O)(=O)N4CCOCC4)c3)c(C(=O)O)n1)CC2` [Example 72, 6-[8-(1,3-benzothiazol-2-ylcarbamoyl)-3,4-dihydroisoquinolin-2(1H)-yl]-3-{1-[2-(morpholin-4-ylsulfonyl)benzyl]-1H-pyrazol-4-yl}pyridine-2-carboxylic acid], the EC50 in assay [1] (Mus musculus) is above 1000 nM. For the same molecule, the Ki on GST-Bcl-xL was 28 nM.

Regarding `O=C(Nc1nc2ccccc2s1)c1cccc2c1CN(c1ccc(-c3ccc4c(cnn4Cc4ccccc4)c3)c(C(=O)O)n1)CC2` [Example 153, 6-[8-(1,3-benzothiazol-2-ylcarbamoyl)-3,4-dihydroisoquinolin-2(1H)-yl]-3-(1-benzyl-1H-indazol-5-yl)pyridine-2-carboxylic acid], the EC50 in assay [1] (Mus musculus) was found to be 587 nM. Besides, the inhibition constant (Ki) on GST-Bcl-xL was determined as 0.3 nM.

Turning to `O=C(Nc1nc2ccccc2s1)c1cccc2c1CN(c1ccc(-c3cnn(C(CC4CCCCC4)c4ccccc4)c3)c(C(=O)O)n1)CC2` (stereo not drawn) [Example 96, 6-[8-(1,3-benzothiazol-2-ylcarbamoyl)-3,4-dihydroisoquinolin-2(1H)-yl]-3-[1-(2-cyclohexyl-1-phenylethyl)-1H-pyrazol-4-yl]pyridine-2-carboxylic acid], the EC50 in assay [1] (Mus musculus) stood at 620 nM. At GST-Bcl-xL, the Ki is 12 nM.

With `O=C(Nc1nc2ccccc2s1)c1cccc2c1CN(c1ccc(-c3cnn(C4CCOc5ccccc54)c3)c(C(=O)O)n1)CC2` (stereo not drawn) [Example 39, 6-[8-(1,3-benzothiazol-2-ylcarbamoyl)-3,4-dihydroisoquinolin-2(1H)-yl]-3-[1-(3,4-dihydro-2H-chromen-4-yl)-1H-pyrazol-4-yl]pyridine-2-carboxylic acid], the EC50 in assay [1] (Mus musculus) was above 1000 nM. Further, at GST-Bcl-xL, the Ki came to 56 nM.

`O=C(Nc1nc2ccccc2s1)c1cccc2c1CN(c1ccc(-c3cnn(Cc4cccc(C(F)(F)F)c4)c3)c(C(=O)O)n1)CC2` [Example 61, 6-[8-(1,3-benzothiazol-2-ylcarbamoyl)-3,4-dihydroisoquinolin-2(1H)-yl]-3-{1-[3-(trifluoromethyl)benzyl]-1H-pyrazol-4-yl}pyridine-2-carboxylic acid]: the EC50 in assay [1] (Mus musculus) stood at 380 nM. Also, the inhibition constant (Ki) on GST-Bcl-xL worked out at 11 nM.

Take `O=C(Nc1nc2ccccc2s1)c1cccc2c1CN(c1ccc(-c3cnn(C(CCN4CCOCC4)c4ccccc4)c3)c(C(=O)O)n1)CC2` (stereo not drawn) [Example 77, 6-[8-(1,3-benzothiazol-2-ylcarbamoyl)-3,4-dihydroisoquinolin-2(1H)-yl]-3-{1-[3-(morpholin-4-yl)-1-phenylpropyl]-1H-pyrazol-4-yl}pyridine-2-carboxylic acid]: the EC50 in assay [1] (Mus musculus) stood at 431 nM. Also, the inhibition constant (Ki) on GST-Bcl-xL amounted to 10 nM.

With `O=C(Nc1nc2ccccc2s1)c1cccc2c1CN(c1ccc(-c3cnn(Cc4ccccc4OCc4ccccc4)c3)c(C(=O)O)n1)CC2` [Example 31, 6-[8-(1,3-benzothiazol-2-ylcarbamoyl)-3,4-dihydroisoquinolin-2(1H)-yl]-3-{1-[2-(benzyloxy)benzyl]-1H-pyrazol-4-yl}pyridine-2-carboxylic acid], in assay [1] (Mus musculus), the EC50 was above 1000 nM. Besides, the Ki on GST-Bcl-xL amounted to 18 nM.

On to `CC(C)CC1(Cn2cc(-c3ccc(N4CCc5cccc(C(=O)Nc6nc7ccccc7s6)c5C4)nc3C(=O)O)cn2)CCCCC1` [Example 87, 6-[8-(1,3-benzothiazol-2-ylcarbamoyl)-3,4-dihydroisoquinolin-2(1H)-yl]-3-(1-{[1-(2-methylpropyl)cyclohexyl]methyl}-1H-pyrazol-4-yl)pyridine-2-carboxylic acid], for which the EC50 in assay [1] (Mus musculus) was 124 nM. Further, at GST-Bcl-xL, the Ki came out at 4 nM.

Consider `O=C(Nc1nc2ccccc2s1)c1cccc2c1CN(c1ccc(-c3cn(Cc4ccccc4)nn3)c(C(=O)O)n1)CC2` [Example 122, 6-[8-(1,3-benzothiazol-2-ylcarbamoyl)-3,4-dihydroisoquinolin-2(1H)-yl]-3-(1-benzyl-1H-1,2,3-triazol-4-yl)pyridine-2-carboxylic acid], for which the EC50 in assay [1] (Mus musculus) is above 1000 nM. Also, the Ki at GST-Bcl-xL came to 117 nM.

Regarding `O=C(Nc1nc2ccccc2s1)c1cccc2c1CN(c1ccc(-c3cnn(Cc4cccc(-c5ccccc5)c4)c3)c(C(=O)O)n1)CC2` [Example 58, 6-[8-(1,3-benzothiazol-2-ylcarbamoyl)-3,4-dihydroisoquinolin-2(1H)-yl]-3-[1-(biphenyl-3-ylmethyl)-1H-pyrazol-4-yl]pyridine-2-carboxylic acid], the EC50 in assay [1] (Mus musculus) was above 1000 nM. In addition, on GST-Bcl-xL, the inhibitory constant (Ki) turned out to be 174 nM.

On to `CN(C)CCCOc1ccccc1Cn1cc(-c2ccc(N3CCc4cccc(C(=O)Nc5nc6ccccc6s5)c4C3)nc2C(=O)O)cn1` [Example 47, 6-[8-(1,3-benzothiazol-2-ylcarbamoyl)-3,4-dihydroisoquinolin-2(1H)-yl]-3-(1-{2-[3-(dimethylamino)propoxy]benzyl}-1H-pyrazol-4-yl)pyridine-2-carboxylic acid], for which, in assay [1] (Mus musculus), the EC50 amounted to 881 nM. On GST-Bcl-xL, the inhibitory constant (Ki) came out at 16 nM.

On to `Cc1c(-c2ccc(N3CCc4cccc(C(=O)Nc5nc6ccccc6s5)c4C3)nc2C(=O)O)cccc1N(C)C(=O)C1CCCCC1` [Example 177, 6-[8-(1,3-benzothiazol-2-ylcarbamoyl)-3,4-dihydroisoquinolin-2(1H)-yl]-3-{3-[(cyclohexylcarbonyl)(methyl)amino]-2-methylphenyl}pyridine-2-carboxylic acid], for which, in assay [1] (Mus musculus), the EC50 turned out to be 24 nM. In addition, at GST-Bcl-xL, the inhibition constant (Ki) is below 0.1 nM.
